These are literature values, as cited in patent US6306425A, “Injectable naltrexone microsphere compositions and their use in reducing consumption of heroin and alcohol” (Southern Research Institute, priority 2000, dated 2001).

In the case of `O=C1CC[C@@]2(O)[C@H]3Cc4ccc(O)c5c4[C@@]2(CCN3CC2CC2)[C@H]1O5` [naltrexone], the Safety result (administered levels in excess of those of the subject compositions) is listed as “found to be safe”. In addition, the Hepatotoxicity entry (high dosages) was “some reports of hepatotoxicity”. Also, the “Population with adverse reactions” value (oral naltrexone) is “about 10%”. The “Control of amount of alcohol consumed and number of binges” value with alcoholics is “serves to enhance the control of the alcoholic in the amount of alcohol consumed and the number of binges”.
